# Test results as given in publication PMC7871173 (Journal of medicinal chemistry, 2019).
# Entries after “also recorded” stand apart in the source; their conditions may differ.
# Tests used:
# [1] = molecular target: T1, CB1 receptor (Homo sapiens, UniProt P21554); assay: cell-based; settings: read-out: Emax PAM, maximum EC20 CP 55,940-induced β-arrestin recruitment relative to maximum achievable with CP 55,940
# [2] = molecular target: T2, CB1 receptor (Mus musculus, UniProt P47746); assay: Augmentation of CP 55,940 antinociception in the tail withdrawal test; format: in vivo; settings: 40 mg/kg
# [3] = molecular target: T2, CB1 receptor; settings: for activity in the tetrad or psychoactive effects: see Supporting Information
# [4] = molecular target: T1, CB1 receptor; format: cell-based; settings: for CB1 PAM activity (in words): enhancement of CP 55,940-induced β-arrestin recruitment; for enhancement of CP 55,940-induced β-arrestin recruitment: at 300 nM
# [5] = molecular target: T1, CB1 receptor; format: cell-based; settings: compound alone; relative to maximum achievable with CP 55,940
# [6] = molecular target: T1, CB1 receptor; format: binding; settings: 1 μM compound; for % enhancement of [3H]CP 55,940 binding: three independent experiments
# [7] = in vitro; settings: rat, rat liver microsomes
# [8] = Mouse liver microsomal stability; format: in vitro ADME; settings: mouse liver microsomes
# [9] = test system: mouse chronic constrictive injury of the sciatic nerve (CCI) model of neuropathic pain; settings: 40 mg/kg; cited from earlier work
# [10] = compared to nearest nitro analogue
# T2 sequence (P47746 whole entry): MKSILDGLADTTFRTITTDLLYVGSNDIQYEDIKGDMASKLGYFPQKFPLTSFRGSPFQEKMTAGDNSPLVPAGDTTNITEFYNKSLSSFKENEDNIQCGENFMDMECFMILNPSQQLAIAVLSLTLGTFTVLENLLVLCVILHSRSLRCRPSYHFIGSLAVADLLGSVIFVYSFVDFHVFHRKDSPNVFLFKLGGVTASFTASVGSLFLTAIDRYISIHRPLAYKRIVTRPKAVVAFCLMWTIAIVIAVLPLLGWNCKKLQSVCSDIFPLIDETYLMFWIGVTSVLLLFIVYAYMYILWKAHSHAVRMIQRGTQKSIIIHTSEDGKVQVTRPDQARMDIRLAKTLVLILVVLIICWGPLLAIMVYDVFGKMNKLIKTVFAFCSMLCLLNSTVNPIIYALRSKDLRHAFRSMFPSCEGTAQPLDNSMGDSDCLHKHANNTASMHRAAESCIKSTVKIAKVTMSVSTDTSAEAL
# T1 sequence (P21554 whole entry): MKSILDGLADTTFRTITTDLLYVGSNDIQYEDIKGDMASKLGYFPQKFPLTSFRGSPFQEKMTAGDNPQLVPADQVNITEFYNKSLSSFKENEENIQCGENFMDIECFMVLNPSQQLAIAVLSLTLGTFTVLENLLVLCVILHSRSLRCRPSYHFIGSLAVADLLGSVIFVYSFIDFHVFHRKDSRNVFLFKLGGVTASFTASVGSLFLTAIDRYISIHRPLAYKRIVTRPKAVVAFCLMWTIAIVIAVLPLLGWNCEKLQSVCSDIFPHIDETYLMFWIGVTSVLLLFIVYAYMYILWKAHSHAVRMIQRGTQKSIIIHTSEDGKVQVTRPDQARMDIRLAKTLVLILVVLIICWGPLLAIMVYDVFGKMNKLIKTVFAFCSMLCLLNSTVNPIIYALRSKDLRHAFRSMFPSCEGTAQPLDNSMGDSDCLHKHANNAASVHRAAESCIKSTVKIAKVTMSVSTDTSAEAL
smiles,measurement,setting,value
"N#Cc1ccc2c(C(CC(F)(F)F)c3cccs3)c(-c3ccccc3)[nH]c2c1 (racemic) [(±)-1, 2-Phenyl-3-(3,3,3-trifluoro-1-(thiophen-2-yl)propyl)-1H-indole-6-carbonitrile]",Emax,[1],100 ± 25%
same,"shift of dose–response relationship of CP 55,940 in producing antinociception",[2],significant leftward shifts
same,antinociception in the tail withdrawal test,"[3]; 40 mg/kg, administered alone",did not produce antinociception
same,hypothermia,"[3]; 40 mg/kg, administered alone",did not produce hypothermia
same,immobility in the catalepsy bar test,"[3]; 40 mg/kg, administered alone",did not produce hypothermia or cause immobility in the catalepsy bar test
same,"locomotor behavior (distance traveled, immobility time)","[3]; 40 mg/kg, administered alone",did not affect either the distance traveled or immobility time
same,pharmacological effects in the tetrad assay,"[3]; 40 mg/kg, administered alone",did not elicit pharmacological effects
same,activity in the tetrad or psychoactive effects,[3],neither ZCZ011 or (±)-1 showed any activity in the tetrad or psychoactive effects
N#Cc1ccc2c(C(C[N+](=O)[O-])c3cccs3)c(-c3ccccc3)[nH]c2c1 (racemic) [(±)-8],CB1 PAM activity (in words),[4],moderately potent and efficacious CB1 PAMs
"N#Cc1ccc2c(C(C[N+](=O)[O-])c3cccs3)c(-c3ccccc3)[nH]c2c1 (single isomer, unassigned; (+)) [(+)-8]",CB1 PAM activity (in words),[4],effectively pure PAMs
same,Emax Ago,[5],6%
same,"enhancement in binding of [3H]CP 55,940 (in words)",[6],no enhancement
"N#Cc1ccc2c(C(C[N+](=O)[O-])c3cccs3)c(-c3ccccc3)[nH]c2c1 (single isomer, unassigned; (-)) [(−)-8]",CB1 PAM activity (in words),[4],effectively pure PAMs
same,"enhancement in binding of [3H]CP 55,940 (in words)",[6],no enhancement
N#Cc1ccc2c([C@@H](CC(F)(F)F)c3cccs3)c(-c3ccccc3)[nH]c2c1 [(R)-(−)-1],Emax,[1],125 ± 29%
same,"enhancement in binding of [3H]CP 55,940 (in words)",[6],significant enhancement
same,"% enhancement of [3H]CP 55,940 binding",[6],131.4 ± 4.3%
N#Cc1ccc2c([C@H](CC(F)(F)F)c3cccs3)c(-c3ccccc3)[nH]c2c1 [(S)-(+)-1],Emax,[1],79 ± 32%
same,"enhancement in binding of [3H]CP 55,940 (in words)",[6],significant enhancement
same,"% enhancement of [3H]CP 55,940 binding",[6],144.4 ± 3.5%
Cc1ccc2[nH]c(-c3ccccc3)c(C(C[N+](=O)[O-])c3cccs3)c2c1 (stereo not shown) [Compound 2],CB1 PAM activity (in words),[4],poor potency
N#Cc1ccc2[nH]c(-c3ccccc3)c(C(C[N+](=O)[O-])c3cccs3)c2c1 (stereo not shown) [Compound 3],CB1 PAM activity (in words),[4],poor potency
O=[N+]([O-])CC(c1cccs1)c1c(-c2ccccc2)[nH]c2ccc([N+](=O)[O-])cc12 (stereo not shown) [Compound 4],CB1 PAM activity (in words),[4],poor potency
"Cc1ccc2c(C(C[N+](=O)[O-])c3cccs3)c(-c3ccccc3)[nH]c2c1 (stereo not shown) [Compound 5, reference compound]",half-life,[7],≤ 10 min
same,half-life,[8],≤ 10 min
same,anti-allodynic effects,[9],produces anti-allodynic effects
same,CB1 PAM activity (in words),[4],moderately potent and efficacious CB1 PAMs
same,"enhancement in binding of [3H]CP 55,940 (in words)",[6],significant enhancement
same,activity in the tetrad or psychoactive effects,[3],neither ZCZ011 or (±)-1 showed any activity in the tetrad or psychoactive effects
O=[N+]([O-])CC(c1cccs1)c1c(-c2ccccc2)[nH]c2cc(Cl)ccc12 (stereo not shown) [Compound 6],CB1 PAM activity (in words),[4],moderately potent and efficacious CB1 PAMs
O=[N+]([O-])CC(c1cccs1)c1c(-c2ccccc2)[nH]c2cc(C(F)(F)F)ccc12 (stereo not shown) [Compound 7],CB1 PAM activity (in words),[4],moderately potent and efficacious CB1 PAMs
Cc1ccc2c(C(CC#N)c3ccccc3)c(-c3ccccc3)[nH]c2c1 (stereo not shown) [Compound 30],CB1 PAM activity (in words),[4],modest
N#CCC(c1ccccc1)c1c(-c2ccccc2)[nH]c2cc(Cl)ccc12 (stereo not shown) [Compound 31],metabolic stability in rat liver microsomes (in words),[10],similarly poor metabolic stability
same,CB1 PAM activity (in words),[4],somewhat reduced potency and efficacy
Cc1ccc2c(C(c3ccccc3)C(C#N)C#N)c(-c3ccccc3)[nH]c2c1 (stereo not shown) [Compound 32],CB1 PAM activity (in words),[4],modest
Cc1ccc2c(C(C(=O)C(F)(F)F)c3ccccc3)c(-c3ccccc3)[nH]c2c1 (stereo not shown) [Compound 38],"enhancement of CP 55,940-induced β-arrestin recruitment",[4],50–100%
Cc1ccc2c(C(CC(F)(F)F)c3ccccc3)c(-c3ccccc3)[nH]c2c1 (stereo not shown) [Compound 39],"enhancement of CP 55,940-induced β-arrestin recruitment",[4],50–100%
O=C(O)c1ccc2c(C(CC(F)(F)F)c3cccs3)c(-c3ccccc3)[nH]c2c1 (stereo not shown) [Compound 51],CB1 PAM activity (in words),[4],"none of 6-CO2H (51), 6-CH2OH (52), 6-NHAc (53), 6-NH2 (55), or 6-NHSO2Me (56) gave active compounds; also recorded: inactive"
"OCc1ccc2c(C(CC(F)(F)F)c3cccs3)c(-c3ccccc3)[nH]c2c1 (stereo not shown) [Compound 52, (2-Phenyl-3-(3,3,3-trifluoro-1-(thiophen-2-yl)propyl)-1H-indol-6-yl)methanol]",CB1 PAM activity (in words),[4],"none of 6-CO2H (51), 6-CH2OH (52), 6-NHAc (53), 6-NH2 (55), or 6-NHSO2Me (56) gave active compounds"
"CC(=O)Nc1ccc2c(C(CC(F)(F)F)c3cccs3)c(-c3ccccc3)[nH]c2c1 (stereo not shown) [Compound 53, N-(2-Phenyl-3-(3,3,3-trifluoro-1-(thiophen-2-yl)propyl)-1H-indol-6-yl)acetamide]",CB1 PAM activity (in words),[4],"none of 6-CO2H (51), 6-CH2OH (52), 6-NHAc (53), 6-NH2 (55), or 6-NHSO2Me (56) gave active compounds"
"CC(=O)c1ccc2c(C(CC(F)(F)F)c3cccs3)c(-c3ccccc3)[nH]c2c1 (stereo not shown) [Compound 54, 1-(2-Phenyl-3-(3,3,3-trifluoro-1-(thiophen-2-yl)propyl)-1H-indol-6-yl)ethan-1-one]",CB1 PAM activity (in words),[4],potent and efficacious
"Nc1ccc2c(C(CC(F)(F)F)c3cccs3)c(-c3ccccc3)[nH]c2c1 (stereo not shown) [Compound 55, 2-Phenyl-3-(3,3,3-trifluoro-1-(thiophen-2-yl)propyl)-1H-indol-6-amine]",CB1 PAM activity (in words),[4],"none of 6-CO2H (51), 6-CH2OH (52), 6-NHAc (53), 6-NH2 (55), or 6-NHSO2Me (56) gave active compounds"
"CS(=O)(=O)Nc1ccc2c(C(CC(F)(F)F)c3cccs3)c(-c3ccccc3)[nH]c2c1 (stereo not shown) [Compound 56, N-(2-Phenyl-3-(3,3,3-trifluoro-1-(thiophen-2-yl)propyl)-1H-indol-6-yl)methanesulfonamide]",CB1 PAM activity (in words),[4],"none of 6-CO2H (51), 6-CH2OH (52), 6-NHAc (53), 6-NH2 (55), or 6-NHSO2Me (56) gave active compounds"
